In patent publication US8338465B2, “Cyclic carboxylic acid rhodanine derivatives for the treatment and prevention of tuberculosis” (priority 2006, dated 2012):

Biological target: T1, dihydrolipoamide acyltransferase (DlaT) (Mycobacterium tuberculosis, UniProt P9WIS7)
T1 sequence (P9WIS7 1-553): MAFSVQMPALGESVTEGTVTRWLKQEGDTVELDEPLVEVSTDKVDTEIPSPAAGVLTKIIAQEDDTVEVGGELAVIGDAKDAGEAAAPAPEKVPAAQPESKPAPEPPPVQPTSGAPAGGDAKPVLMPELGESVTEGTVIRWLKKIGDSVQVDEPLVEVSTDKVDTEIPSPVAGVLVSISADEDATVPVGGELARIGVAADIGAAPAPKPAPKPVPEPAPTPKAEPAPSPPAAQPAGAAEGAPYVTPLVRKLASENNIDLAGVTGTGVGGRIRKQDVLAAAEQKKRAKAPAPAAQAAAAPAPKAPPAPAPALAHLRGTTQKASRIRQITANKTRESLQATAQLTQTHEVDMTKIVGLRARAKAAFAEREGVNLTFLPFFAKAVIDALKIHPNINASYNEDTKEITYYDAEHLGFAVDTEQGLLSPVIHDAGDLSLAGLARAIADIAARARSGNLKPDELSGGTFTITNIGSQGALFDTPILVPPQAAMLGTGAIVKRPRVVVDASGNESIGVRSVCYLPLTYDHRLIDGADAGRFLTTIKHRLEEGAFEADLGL
Experiment: DlaT inhibition (Dlat IC50); DTNB peroxidase assay with Lpd, DlaT and AhpD
Format: biochemical
Conditions: Dlat IC50 category

First: CSc1ccc(-c2ccc(C=C3SC(=S)N(C4CCC(C(=O)O)CC4)C3=O)o2)cc1 (stereo not shown) [Compound C65, 4-{5-[1-[5-(4-methylsulfanyl-phenyl)-furan-2-yl]-methylidene]-4-oxo-2-thioxo-thiazolidin-3-yl}-cyclohexanecarboxylic acid]
Second: CCCc1ccc(-c2ccc(C=C3SC(=S)N(C4CCC(C(=O)O)CC4)C3=O)o2)cc1 (stereo not shown) [Compound C80, 4-{5-[1-[5-(4-propyl-phenyl)-furan-2-yl]-methylidene]-4-oxo-2-thioxo-thiazolidin-3-yl}-cyclohexanecarboxylic acid]
The IC50 of the first is lower: < 10 µM for the first, 11 to 40 µM for the second. The first is the more potent here.

`CC(C)Oc1ccc(-c2ccc(C=C3SC(=S)N(C4CCCC(C(=O)O)C4)C3=O)o2)cc1` (stereo not shown) [Compound C66, 3-{5-[5-(4-Isopropoxy-phenyl)-furan-2-ylmethylene]-4-oxo-2-thioxo-thiazolidin-3-yl}-cyclohexanecarboxylic acid] and `CC(C)Oc1ccc(-c2ccc(C=C3SC(=S)N(C4CCC(C(=O)O)CC4)C3=O)o2)cc1` (stereo not shown) [Compound C67, 4-{5-[5-(4-Isopropoxy-phenyl)-furan-2-ylmethylene]-4-oxo-2-thioxo-thiazolidin-3-yl}-cyclohexanecarboxylic acid] cannot be ordered by IC50: < 10 µM for the first, < 10 µM for the second.

First: Cc1ccc(-c2cccc(C=C3SC(=S)N(C4CCCC(C(=O)O)C4)C3=O)c2)cc1 (stereo not shown) [Compound C68, 3-{5-[1-(4′-methyl-biphenyl-3-yl)-methylidene]-4-oxo-2-thioxo-thiazolidin-3-yl}cyclohexanecarboxylic acid]
Second: Cc1ccc(-c2cccc(C=C3SC(=S)N(C4CCC(C(=O)O)CC4)C3=O)c2)cc1 (stereo not shown) [Compound C69, 4-{5-[1-(4′-methyl-biphenyl-3-yl)-methylidene]-4-oxo-2-thioxo-thiazolidin-3-yl}-cyclohexanecarboxylic acid]
The IC50 of the first is higher: 41 to 80 µM for the first, < 10 µM for the second.

`O=C(O)C1CCCC(N2C(=O)C(=Cc3ccc(-c4ccccc4-c4ccccc4)o3)SC2=S)C1` (stereo not shown) [Compound C70, 3-{5-[1-(5-biphenyl-2-yl-furan-2-yl)-methylidene]-4-oxo-2-thioxo-thiazolidin-3-yl}-cyclohexanecarboxylic acid] and `O=C(O)C1CCC(N2C(=O)C(=Cc3ccc(-c4ccccc4-c4ccccc4)o3)SC2=S)CC1` (stereo not shown) [Compound C71, 4-{5-[1-(5-biphenyl-2-yl-furan-2-yl)-methylidene]-4-oxo-2-thioxo-thiazolidin-3-yl}-cyclohexanecarboxylic acid] cannot be ordered by IC50: < 10 µM for the first, < 10 µM for the second.

`Cc1ccc(-c2ccc(C=C3SC(=S)N(C4CCCC(C(=O)O)C4)C3=O)cc2)cc1` (stereo not shown) [Compound C72, 3-{5-[1-(4′-methyl-biphenyl-4-yl)-methylidene]-4-oxo-2-thioxo-thiazolidin-3-yl}-cyclohexanecarboxylic acid] and `Cc1ccc(-c2ccc(C=C3SC(=S)N(C4CCC(C(=O)O)CC4)C3=O)cc2)cc1` (stereo not shown) [Compound C73, 4-{5-[1-(4′-methyl-biphenyl-4-yl)-methylidene]-4-oxo-2-thioxo-thiazolidin-3-yl}-cyclohexanecarboxylic acid] cannot be ordered by IC50: < 10 µM for the first, < 10 µM for the second.

`COc1ccc(C)cc1-c1ccc(C=C2SC(=S)N(C3CCCC(C(=O)O)C3)C2=O)o1` (stereo not shown) [Compound C74, 3-{5-[5-(2-Methoxy-5-methyl-phenyl)-furan-2-ylmethylene]-4-oxo-2-thioxo-thiazolidin-3-yl}-cyclohexanecarboxylic acid] and `COc1ccc(C)cc1-c1ccc(C=C2SC(=S)N(C3CCC(C(=O)O)CC3)C2=O)o1` (stereo not shown) [Compound C75, 4-{5-[5-(2-Methoxy-5-methyl-phenyl)-furan-2-ylmethylene]-4-oxo-2-thioxo-thiazolidin-3-yl}-cyclohexanecarboxylic acid] fall in the same range of IC50: 11 to 40 µM for the first, 11 to 40 µM for the second.

`CC(=O)Nc1ccc(-c2ccc(C=C3SC(=S)N(C4CCC(C(=O)O)CC4)C3=O)o2)cc1` (stereo not shown) [Compound C76, 4-{5-[1-[5-(4-acetylamino-phenyl)-furan-2-yl]-methylidene]-4-oxo-2-thioxo-thiazolidin-3-yl}-cyclohexanecarboxylic acid] and `CNS(=O)(=O)c1ccc(-c2ccc(C=C3SC(=S)N(C4CCC(C(=O)O)CC4)C3=O)o2)cc1` (stereo not shown) [Compound C84, 4-{5-[5-(4-Methylsulfamoyl-phenyl)-furan-2-ylmethylene]-4-oxo-2-thioxo-thiazolidin-3-yl}-cyclohexanecarboxylic acid] cannot be ordered by IC50: < 10 µM for the first, < 10 µM for the second.

First: CCCCc1ccc(-c2ccc(C=C3SC(=S)N(C4CCCC(C(=O)O)C4)C3=O)o2)cc1 (stereo not shown) [Compound C77, 3-{5-[1-[5-(4-butyl-phenyl)-furan-2-yl]-methylidene]-4-oxo-2-thioxo-thiazolidin-3-yl}-cyclohexanecarboxylic acid]
Second: CCCc1ccc(-c2ccc(C=C3SC(=S)N(C4CCCC(C(=O)O)C4)C3=O)o2)cc1 (stereo not shown) [Compound C79, 3-{5-[1-[5-(4-propyl-phenyl)-furan-2-yl]-methylidene]-4-oxo-2-thioxo-thiazolidin-3-yl}-cyclohexanecarboxylic acid]
The IC50 of the first is lower: < 10 µM for the first, 11 to 40 µM for the second. The first is the more potent here.

First: CCCCc1ccc(-c2ccc(C=C3SC(=S)N(C4CCC(C(=O)O)CC4)C3=O)o2)cc1 (stereo not shown) [Compound C78, 4-{5-[1-[5-(4-butyl-phenyl)-furan-2-yl]-methylidene]-4-oxo-2-thioxo-thiazolidin-3-yl}-cyclohexanecarboxylic acid]
Second: CN(C)S(=O)(=O)c1ccc(-c2ccc(C=C3SC(=S)N(C4CCC(C(=O)O)CC4)C3=O)o2)cc1 (stereo not shown) [Compound C86, 4-{5-[5-(4-Dimethylsulfamoyl-phenyl)-furan-2-ylmethylene]-4-oxo-2-thioxo-thiazolidin-3-yl}-cyclohexanecarboxylic acid]
The IC50 of the first is lower: < 10 µM for the first, 11 to 40 µM for the second. The first is the more potent here.

First: CNS(=O)(=O)c1ccc(-c2ccc(C=C3SC(=S)N(C4CCCC(C(=O)O)C4)C3=O)o2)cc1 (stereo not shown) [Compound C83, 3-{5-[5-(4-Methylsulfamoyl-phenyl)-furan-2-ylmethylene]-4-oxo-2-thioxo-thiazolidin-3-yl}-cyclohexanecarboxylic acid]
Second: CN(C)S(=O)(=O)c1ccc(-c2ccc(C=C3SC(=S)N(C4CCCC(C(=O)O)C4)C3=O)o2)cc1 (stereo not shown) [Compound C85, 3-{5-[5-(4-Dimethylsulfamoyl-phenyl)-furan-2-ylmethylene]-4-oxo-2-thioxo-thiazolidin-3-yl}-cyclohexanecarboxylic acid]
The IC50 of the first is lower: 11 to 40 µM for the first, 41 to 80 µM for the second.

`O=C(O)c1ccccc1NN1C(=O)C(=Cc2ccc(-c3ccccc3Cl)o2)SC1=S` [Compound D1, 2-{5-[1-[5-(2-chloro-phenyl)-furan-2-yl]-methylidene]-4-oxo-2-thioxo-thiazolidin-3-ylamino}-benzoic acid] and `O=C(O)c1ccccc1NN1C(=O)C(=Cc2ccc(-c3ccccc3O)o2)SC1=S` [Compound D12, 2-{5-[1-[5-(2-Hydroxy-phenyl)-furan-2-yl]-methylidene]-4-oxo-2-thioxo-thiazolidin-3-ylamino}-benzoic acid] cannot be ordered by IC50: < 10 µM for the first, < 10 µM for the second.

`O=C(O)c1ccccc1NN1C(=O)C(=Cc2ccc(-c3cccc(C(F)(F)F)c3)o2)SC1=S` [Compound D3, 2-{4-oxo-2-thioxo-5-[1-[5-(3-trifluoromethyl-phenyl)-furan-2-yl]-methylidene]-thiazolidin-3-ylamino}-benzoic acid] and `O=C(O)c1ccccc1NN1C(=O)C(=Cc2ccc(-c3cccc([N+](=O)[O-])c3)o2)SC1=S` [Compound D4, 2-{5-[1-[5-(3-nitro-phenyl)-furan-2-yl]-methylidene]-4-oxo-2-thioxo-thiazolidin-3-ylamino}-benzoic acid] cannot be ordered by IC50: < 10 µM for the first, < 10 µM for the second.

`CC(C)(C)c1ccc(O)c(-c2ccc(C=C3SC(=S)N(Nc4ccccc4C(=O)O)C3=O)o2)c1` [Compound D5, 2-{5-[1-[5-(5-tert-butyl-2-hydroxy-phenyl)-furan-2-yl]-methylidene]-4-oxo-2-thioxo-thiazolidin-3-ylamino}-benzoic acid] and `Cc1ccc(-c2ccc(C=C3SC(=S)N(Nc4ccccc4C(=O)O)C3=O)o2)c(C)c1` [Compound D8, 2-{5-[1-[5-(2,4-dimethyl-phenyl)-furan-2-yl]-methylidene]-4-oxo-2-thioxo-thiazolidin-3-ylamino}-benzoic acid] cannot be ordered by IC50: < 10 µM for the first, < 10 µM for the second.

`O=C(O)c1ccccc1NN1C(=O)C(=Cc2ccc(-c3ccc(F)cc3F)o2)SC1=S` [Compound D7, 2-{5-[1-[5-(2,4-difluoro-phenyl)-furan-2-yl]-methylidene]-4-oxo-2-thioxo-thiazolidin-3-ylamino}-benzoic acid] and `Cc1cc(F)ccc1-c1ccc(C=C2SC(=S)N(Nc3ccccc3C(=O)O)C2=O)o1` [Compound D10, 2-{5-[1-[5-(4-fluoro-2-methyl-phenyl)-furan-2-yl]-methylidene]-4-oxo-2-thioxo-thiazolidin-3-ylamino}-benzoic acid] cannot be ordered by IC50: < 10 µM for the first, < 10 µM for the second.

`COc1ccc(-c2ccc(C=C3SC(=S)N(Nc4ccccc4C(=O)O)C3=O)o2)c(C)c1` [Compound D9, 2-{5-[1-[5-(4-methoxy-2-methyl-phenyl)-furan-2-yl]-methylidene]-4-oxo-2-thioxo-thiazolidin-3-ylamino}-benzoic acid] and `Cc1ccc(-c2ccc(C=C3SC(=S)N(Nc4ccccc4C(=O)O)C3=O)o2)c(F)c1` [Compound D11, 2-{5-[1-[5-(2-fluoro-4-methyl-phenyl)-furan-2-yl]-methylidene]-4-oxo-2-thioxo-thiazolidin-3-ylamino}-benzoic acid] cannot be ordered by IC50: < 10 µM for the first, < 10 µM for the second.

For `Cc1ccc(-c2ccc(C=C3SC(=S)N(Nc4ccccc4C(=O)O)C3=O)o2)cc1` [Compound D13, 2-{4-oxo-2-thioxo-5-[1-(5-p-tolyl-furan-2-yl)-methylidene]-thiazolidin-3-ylamino}-benzoic acid], the IC50 was < 10 µM.
